Structures can show the parent of a compound that is named as a salt.
Experiments:
full-length human LSD1 = full-length human LSD1 (Homo sapiens (Human), UniProt O60341); assay: In vitro enzyme inhibition assay LSD-1 (TR-FRET); assay type: biochemical; details: TR-FRET, 0.1 nM LSD1, 50 nM H3K4me1-biotin peptide, 2 μM FAD, pH7.3; read-out: LSD1 IC50
Procedure: This assay determines the ability of a test compound to inhibit LSD1 demethylase activity.
The enzymatic assay of LSD1 activity is based on Time Resolved-Fluorescence Resonance Energy Transfer (TR-FRET) detection.
The ability of the compounds disclosed herein to inhibit LSD1 activity was quantified and the respective IC50 value was determined. Table 5 provides the IC50 values of various substituted heterocyclic compounds disclosed herein.

THP-1 (AML) cells = assay: LSD1 CD11b cellular assay (flow cytometry); assay type: cell-based; details: Homo sapiens, 96 h; CD11b expression in THP-1 (AML) cells, flow cytometry, 4 days incubation; read-out: Cellular IC50
Procedure: To analyze LSD1 inhibitor efficacy in cells, a CD11b flow cytometry assay was performed. LSD1 inhibition induces CD11b expression in THP-1 (AML) cells which can be measured by flow cytometry. […] LSD1 test compounds were serially diluted in DMSO. The dilutions were added to each well accordingly to a final concentration of 0.2% DMSO. The cells were incubated at 37° C. in 5% CO2 for 4 days. 250 μL of each well was transferred to a well in a 96 well round bottom plate. The plate was centrifuged at 1200 rpm at 4 degrees Celsius in a Beckman Coulter Alegra 6KR centrifuge for 5 min. The media was removed leaving the cells at the bottom of the wells. The cells were washed in 100 μL cold HBSS (Hank's Balanced Salt Solution) plus 2% BSA (Bovine Serum Albumin) solution and centrifuged at 1200 rpm at 4° C. for 5 min. The wash was removed. […] The cells were centrifuged and washed two times in 100 μl HBSS plus 2% BSA. After the final spin the cells were resuspended in 100 μL HBSS plus 2% BSA containing 1 μg/mL DAPI (4′,6-diamidino-2-phenylindole). The cells were then analyzed by flow cytometry in a BD FACSAria machine. Cells were analyzed for CD11b expression. The percent of CD11b expressing cells for each inhibitor concentration was used to determine an IC50 curve for each compound analyzed.

IC50 (full-length human LSD1)	IC50 (THP-1 (AML) cells)	SMILES
< 100 nM	< 100 nM	Cn1ncc2cc(-c3cnc(N4CCC5CNCC5C4)nc3-c3ccc(C#N)cc3)ccc21 (stereo not drawn) [Example 115, 4-[2-(1,2,3,3a,4,6,7,7a-octahydropyrrolo[3,4-c]pyridin-5-yl)-5-(1-methylindazol-5-yl)pyrimidin-4-yl]benzonitrile]
< 100 nM	< 100 nM	Cc1ccc(-c2nc3cnn(CC4CCNCC4)c3cc2-c2ccc(C#N)cc2)cc1 [Example 14]
< 100 nM	< 100 nM	COc1nc(N2CCC(N)CC2)nc(-c2ccc(C#N)c(F)c2)c1-c1ccc2c(c1)nnn2C [Example 151, 4-[2-(4-aminopiperidin-1-yl)-6-methoxy-5-(1-methyl-1H-1,2,3-benzotriazol-5-yl)pyrimidin-4-yl]-2-fluorobenzonitrile]
< 100 nM	< 100 nM	CNc1nc(N2CCC(N)CC2)nc(-c2ccc(C#N)cc2)c1-c1cnc2c(c1)nnn2C [Example 176, 4-[2-(4-aminopiperidin-1-yl)-5-{3-methyl-3H-[1,2,3]triazolo[4,5-b]pyridin-6-yl}-6-(methylamino)pyrimidin-4-yl]benzonitrile]
< 100 nM	< 100 nM	Cn1cc2cc(-c3cnc(N4CCC(N)C(O)C4)nc3-c3ccc(C#N)c(F)c3)ccc2n1 (stereo not drawn) [Example 107, 4-[2-(4-amino-3-hydroxypiperidin-1-yl)-5-(2-methylindazol-5-yl)pyrimidin-4-yl]-2-fluorobenzonitrile]
< 100 nM	100 to 1000 nM	Cn1cc2ncc(-c3cnc(N4CCC(N)CC4)nc3-c3ccc(C#N)cc3)cc2n1 [Example 76, 4-[2-(4-aminopiperidin-1-yl)-5-(2-methylpyrazolo[4,3-b]pyridin-6-yl)pyrimidin-4-yl]benzonitrile]
< 100 nM	< 100 nM	CN(C)c1ncc(-c2cnc(N3CCC(N)CC3)nc2-c2ccc(C#N)c(F)c2)cn1 [Example 134, 4-[2-(4-aminopiperidin-1-yl)-5-[2-(dimethylamino)pyrimidin-5-yl]pyrimidin-4-yl]-2-fluorobenzonitrile]
< 100 nM	< 100 nM	N#Cc1ccc(-c2nc(N3CCC(N)CC3)ncc2-c2cnn(C3CCOCC3)c2)cc1F [Example 142, 4-[2-(4-aminopiperidin-1-yl)-5-[1-(oxan-4-yl)pyrazol-4-yl]pyrimidin-4-yl]-2-fluorobenzonitrile]
< 100 nM	< 100 nM	Cc1ccc(-c2nc3ccn(C[C@@H]4CCNC4)c3cc2-c2ccc(C#N)cc2)cc1 [Example 1, 4-[5-(4-methylphenyl)-1-[[(3R)-pyrrolidin-3-yl]methyl]pyrrolo[3,2-b]pyridin-6-yl]benzonitrile]
< 100 nM	< 100 nM	COc1ccc(-c2nc3ccn(C[C@H]4CCNC4)c3cc2-c2ccc(C#N)cc2)cc1F [Example 51, 4-{1-[((3S)pyrrolidin-3-y])methyl]-5-(3-fluoro-4-methoxyphenyl)pyrrolo[3,2-b]pyridin-6-yl}benzenecarbonitrile, HCl salt]
< 100 nM	< 100 nM	Cn1cc(C#Cc2cnc(N3CCC(N)CC3)nc2-c2ccc(C#N)c(F)c2)nn1 [Example 100]
< 100 nM	< 100 nM	COc1nc(N2CCC(N)CC2)nc(-c2ccc(C#N)cc2)c1-c1ccc2nn(C)cc2c1 [Example 152, 4-[2-(4-aminopiperidin-1-yl)-6-methoxy-5-(2-methyl-2H-indazol-5-yl)pyrimidin-4-yl]benzonitrile]
< 100 nM	100 to 1000 nM	CNc1ncc(-c2cnc(N3CCC(N)CC3)nc2-c2ccc(C#N)c(F)c2)cn1 [Example 140, 4-[2-(4-aminopiperidin-1-yl)-5-[2-(methylamino)pyrimidin-5-yl]pyrimidin-4-yl]-2-fluorobenzonitrile]
< 100 nM	100 to 1000 nM	N#Cc1ccc(-c2nc(NC[C@H]3CCNC3)ncc2-c2ccc(Cl)cc2)cc1 [Example 19, 4-[5-(4-chlorophenyl)-2-{[(3S)-pyrrolidin-3-ylmethyl]amino}pyrimidin-4-yl]benzonitrile]
< 100 nM	< 100 nM	Cn1cc2cc(-c3cnc(N4CCCNCC4)nc3-c3ccc(C#N)c(F)c3)ccc2n1 [Example 110, 4-[2-(1,4-diazepan-1-yl)-5-(2-methylindazol-5-yl)pyrimidin-4-yl]-2-fluorobenzonitrile]
< 100 nM	< 100 nM	CNc1nc(N2CC[C@H](N)[C@H](F)C2)nc(-c2ccc(C#N)cc2)c1-c1ccc2nn(C)cc2c1 [Example 178, 4-{2-[(3R,4S)-4-amino-3-fluoropiperidin-1-yl]-5-(2-methyl-2H-indazol-5-yl)-6-(methylamino)pyrimidin-4-yl}benzonitrile]
< 100 nM	< 100 nM	N#Cc1ccc(-c2nc(N3CCC(N)CC3)ncc2-c2cnc(N3CCCC3)nc2)cc1F [Example 135, 4-[2-(4-aminopiperidin-1-yl)-5-(2-pyrrolidin-1-ylpyrimidin-5-yl)pyrimidin-4-yl]-2-fluorobenzonitrile]
< 100 nM	< 100 nM	Cc1ccc(-c2cnc(NC[C@H]3CCNC3)nc2-c2ccc(C#N)cc2)cc1 [Example 16, 4-[5-(4-methylphenyl)-2-{[(3S)-pyrrolidin-3-ylmethyl]amino}pyrimidin-4-yl]benzonitrile]
< 100 nM	100 to 1000 nM	N#Cc1ccc(-c2nc(N3CCC(N)CC3)ncc2C#CC2(O)CCOCC2)cc1F [Example 97, 4-[2-(4-aminopiperidin-1-yl)-5-[2-(4-hydroxyoxan-4-yl)ethynyl]pyrimidin-4-yl]-2-fluorobenzonitrile]
< 100 nM	100 to 1000 nM	Cc1ccc(-c2cc(NC[C@@H]3CCNC3)nn2-c2ccc(C#N)cc2)cc1 [Example 45, 4-[5-(4-methylphenyl)-3-[[(3R)-pyrrolidin-3-yl]methylamino]pyrazol-1-yl]benzonitrile]
< 100 nM	100 to 1000 nM	Cn1cc2cc(-c3cnc(N4CCC(N)CC4)nc3-c3ccc(C#N)cc3)cnc2n1 [Example 85, 4-[2-(4-aminopiperidin-1-yl)-5-(2-methylpyrazolo[3,4-b]pyridin-5-yl)pyrimidin-4-yl]benzonitrile]
< 100 nM	100 to 1000 nM	Cc1ccc(-c2cc(NC[C@H]3[C@@H]4CNC[C@@H]43)nn2-c2ccc(C#N)cc2)cc1 [Example 47, 4-[3-[[(1S,5R)-3-azabicyclo[3.1.0]hexan-6-yl]methylamino]-5-(4-methylphenyl)pyrazol-1-yl]benzonitrile]
< 100 nM	< 100 nM	CNc1nc(N2CCC(N)CC2)nc(-c2ccc(C#N)c(F)c2)c1-c1ccc2c(cnn2C)c1 [Example 161, 4-[2-(4-aminopiperidin-1-yl)-5-(l-methyl-1H-indazol-5-yl)-6-(methylamino)pyrimidin-4-yl]-2-fluorobenzonitrile]
< 100 nM	100 to 1000 nM	Cn1nncc1C#Cc1cnc(N2CCC(N)CC2)nc1-c1ccc(C#N)c(F)c1 [Example 98]
< 100 nM	< 100 nM	Cn1ncc2cc(-c3cnc(N4CCC(N)C(F)C4)nc3-c3ccc(C#N)c(F)c3)ccc21 (stereo not drawn) [Example 111, 4-[2-(4-amino-3-fluoropiperidin-1-yl)-5-(1-methylindazol-5-yl)pyrimidin-4-yl]-2-fluorobenzonitrile]
< 100 nM	100 to 1000 nM	N#Cc1ccc(-c2nc(N3CCC(N)CC3)ncc2-c2ccc(OCC(F)(F)F)nc2)cc1 [Example 131, 4-[2-(4-aminopiperidin-1-yl)-5-[6-(2,2,2-trifluoroethoxy)pyridin-3-yl]pyrimidin-4-yl]benzonitrile]
< 100 nM	< 100 nM	Cc1ccc(-c2cnc(N3C[C@H]4CNC[C@H]4C3)nc2-c2ccc(C#N)cc2)cc1 [Example 21, 4-{2-[(3aR,6aS)-octahydropyrrolo[3,4-c]pyrrol-2-yl]-5-(4-methylphenyl)pyrimidin-4-yl}benzonitrile]
< 100 nM	< 100 nM	Cn1cnc2cc(-c3cnc(N4CCC(N)CC4)nc3-c3ccc(C#N)cc3)ccc21 [Example 122, 4-[2-(4-aminopiperidin-1-yl)-5-(1-methylbenzimidazol-5-yl)pyrimidin-4-yl]benzonitrile]
< 100 nM	< 100 nM	Cc1c2cc(-c3cnc(N4CCC(N)CC4)nc3-c3ccc(C#N)c(F)c3)ccc2nn1C [Example 92, 4-[2-(4-aminopiperidin-1-yl)-5-(2,3-dimethylindazol-5-yl)pyrimidin-4-yl]-2-fluorobenzonitrile]
< 100 nM	< 100 nM	Cc1nn(C)c2ccc(-c3cnc(N4CCC(N)CC4)nc3-c3ccc(C#N)c(F)c3)cc12 [Example 93, 4-[2-(4-aminopiperidin-1-yl)-5-(1,3-dimethylindazol-5-yl)pyrmidin-4-yl]-2-fluorobenzonitrile]
